This assay has as its target DGAT1 (Homo sapiens). Briefly: Inhibition of human DGAT1 assessed as conversion of [14C]-oleoyl-CoA to [14C]-triglyceride after 10 mins by scintillation counting.

With `CC(C)[C@H](NC(=O)c1cc(-c2ccc(NC(=O)Nc3ccccc3F)cc2)no1)C(=O)O`, the IC50 (in general, the concentration that inhibits the measured activity by half) was 141 nM. The figure for `CC(C)[C@H](NC(=O)c1cc(-c2ccc(NC(=O)Nc3ccccc3Cl)cc2)no1)C(=O)O` is 44 nM. Under `CC(C)[C@H](NC(=O)c1ncc(-c2ccc(NC(=O)Nc3ccccc3Cl)cc2)o1)C(=O)O` stands 282 nM; under `CC(C)[C@H](NC(=O)c1cc(-c2ccc(NC(=O)Nc3cccc(Cl)c3)cc2)no1)C(=O)O`, 45 nM; under `CC(C)[C@H](NC(=O)c1cc(-c2ccc(NC(=O)Nc3ccc(Cl)cc3)cc2)no1)C(=O)O`, 124 nM. Under `CC(C)[C@H](NC(=O)c1cc(-c2ccc(NC(=O)Nc3cccc(C(F)(F)F)c3)cc2)no1)C(=O)O` stands 66 nM; under `CC(C)[C@H](NC(=O)c1ncc(-c2ccc(NC(=O)Nc3cccc(C(F)(F)F)c3)cc2)o1)C(=O)O`, 458 nM.

As to `CC(C)[C@H](NC(=O)c1cc(-c2ccc(NC(=O)Nc3ccc(Cl)cc3Oc3ccccc3)cc2)no1)C(=O)O`, the IC50 turned out to be 86 nM. With `CC(C)[C@H](NC(=O)c1ncc(-c2ccc(NC(=O)Nc3ccc(Cl)cc3Oc3ccccc3)cc2)o1)C(=O)O`, the IC50 worked out at 230 nM. As to `CC(C)[C@H](NC(=O)c1cc(-c2ccc(NC(=O)Nc3ccc(Cl)cc3F)cc2)no1)C(=O)O`, the IC50 worked out at 24 nM.

In the case of `CC(C)[C@H](NC(=O)c1cc(-c2ccc(NC(=O)Nc3ccc(F)cc3F)cc2)no1)C(=O)O`, the IC50 turned out to be 62 nM. The figure for `CC(C)[C@H](NC(=O)c1cc(-c2ccc(NC(=O)Nc3ccc(F)cc3)cc2)no1)C(=O)O` is 60 nM; for `Cc1ccc(NC(=O)Nc2ccc(-c3cc(C(=O)N[C@H](C(=O)O)C(C)C)on3)cc2)cc1` it is 61 nM.

For `Cc1ccccc1NC(=O)Nc1ccc(-c2cc(C(=O)N[C@H](C(=O)O)C(C)C)on2)cc1`, the IC50 came out at 84 nM. Under `CC(C)[C@H](NC(=O)c1cc(-c2ccc(NC(=O)Nc3ccc(F)c(F)c3)cc2)no1)C(=O)O` stands 75 nM; under `CC(C)[C@H](NC(=O)c1cc(-c2ccc(NC(=O)Nc3cc(F)cc(F)c3)cc2)no1)C(=O)O`, 75 nM. Under `CC(C)[C@H](NC(=O)c1cc(-c2ccc(NC(=O)Nc3cc(F)ccc3F)cc2)no1)C(=O)O` stands 141 nM; under `CC(C)[C@H](NC(=O)c1cc(-c2ccc(NC(=O)Nc3c(F)cccc3F)cc2)no1)C(=O)O`, 185 nM; under `Cc1cc(C)cc(NC(=O)Nc2ccc(-c3cc(C(=O)N[C@H](C(=O)O)C(C)C)on3)cc2)c1`, 114 nM. Consider `Cc1ccc(NC(=O)Nc2ccc(-c3cc(C(=O)N[C@H](C(=O)O)C(C)C)on3)cc2)cc1F`, for which the IC50 amounted to 178 nM. Under `Cc1cc(F)ccc1NC(=O)Nc1ccc(-c2cc(C(=O)N[C@H](C(=O)O)C(C)C)on2)cc1` stands 90 nM. Under `CC(C)[C@H](NC(=O)c1nc(-c2ccc(NC(=O)Nc3ccc(F)cc3F)cc2)no1)C(=O)O` stands 259 nM; under `CC(C)[C@H](NC(=O)c1cc(-c2ccc(Nc3nc4ccc(F)cc4s3)cc2)no1)C(=O)O`, 120 nM.
